Measured values published in US20210299286A1, “TETRAZINES FOR HIGH CLICK CONJUGATION YIELD IN VIVO AND HIGH CLICK RELEASE YIELD” (Tagworks Pharmaceuticals B.V., priority 2018, published 2021).

Key:
[1] = In vitro tetrazine stability (decrease of UV absorbance at 520 nm); assay type: physicochemical; details: 10% MeCN/PBS; read-out: In vitro tetrazine stability (h), t1/2 (converted)
Description: The stability of tetrazines was evaluated by dissolving them in 10% MeCN/PBS at 37° C. and following the decrease of the tetrazine UV absorbance at 520 nm in time (Table 4).

[2] = tested on: LS174T tumor-bearing mice; experiment: Tumor blocking experiment, mice pretreated with IgG-based ADC CC49-TCO-Dox; assay type: in vivo, mouse; details: CC49-TCO-Dox 5 mg/kg, clearing agent, TZ activator, probe [177Lu]Lu-5.1; compared with the other TZ's
Description: (§1) The animal studies were performed in accordance with the principles established by the revised Dutch Act on Animal Experimentation (1997) and were approved by the institutional Animal Welfare Committee of the Maastricht University and Radboud University Nijmegen. The colorectal cancer (LS174T) mouse model was reported in Rossin et al. Bioconjug. Chem., 2016, 27, 1697-1706.
(§2) To assess the in vivo reaction of TZ activators towards TCO-containing ADCs, tumor blocking experiments were performed as described in Rossin et al., Bioconjug. Chem. 2016, 27, 1697-1706.
A series of 3,6-bisalkyl TZ activators (2.1, 2.2, 2.9, 2.11, 2.12) and 3-alkyl-6-pyridyl TZ activators (3.1, 3.2, 3.4) was tested in tumor-bearing mice (n=3-4) pretreated with an IgG-based ADC (CC49-TCO-Dox, DAR ca. 2) at a 5 mg/kg dose. A clearing agent (galactose-albumin-TZ, Rossin et al., J. Nucl. Med. 2013, 54, 1989-1995) was administered to the mice 24 post-ADC injection followed by the TZ activator (dose 10×: ca. 0.033 mmol/kg; close 100×: ca. 0.335 mmol/kg) 2 h later. One-hour after activation the mice were administered the highly reactive radiolabeled probe [^177Lu]Lu-5.1 (ca. 0.335 μmol/kg, ca. 1.5 MBq/mouse) and were euthanized 3 h later. All injections were performed intravenously. Tumors were harvested and the radioactivity was measured by γ-counting along with standards to determine the % injected dose per gram (% ID/g). […]

CC49-TCO-Dox [3] = experiment: In vitro Dox release from CC49-TCO-Dox in 50% mouse serum; assay type: biochemical
Description: (§3) Doxorubicin (Dox) release from the TCO-linked ADC CC49-TCO-Dox with various TZ activators in PBS and 50% mouse serum at 37° C. was evaluated in vitro as described in Rossin et al. Bioconjug. […] The results of these experiments are depicted in Tables 3 (PBS) and 4 (mouse serum). The release reactions were performed in triplicate unless otherwise stated in the result table.

AVP0458-TCO-MMAE = experiment: MMAE release from diabody ADC with D8-MMAE internal standard (LC-SIM-MS); assay type: biochemical; details: 10 equiv of tetrazine, PBS/plasma (1/1), 37° C., after 24 h, n=3
Description: In an alternative method MMAE release from diabody ADC (AVP0458-TCO-MMAE) was determined by using a deuterated internal standard D8-MMAE. ADC (1.1×10^−10 moles bound MMAE) and D8-MMAE (1.1×10^−10 moles) and 10 equiv of tetrazine were incubated in 100 uL PBS/plasma (1/1) at 37° C.

[4] = Second-order reaction rate constant with TCO derivative by UV spectroscopy; assay type: physicochemical; details: 25% MeCN/PBS at 20° C.
Description: The second-order reaction rate constants were calculated from the rate at which the absorption at 520 nm (specific for the TZ moiety) decreased (Table 4).

CC49-TCO-Dox [5] = experiment: In vitro Dox release from CC49-TCO-Dox in PBS; assay type: biochemical
Description: as §3

[6] = tested on: LS174T tumor-bearing mice; experiment: Tumor blocking experiment, mice pretreated with diabody-based ADC AVP0458-TCO-MMAE; assay type: in vivo, mouse; details: AVP0458-TCO-MMAE ca. 2 mg/kg, activator 48 h later, probe [111In]In-5.1; compared with the other TZ's
Description: as §1, §2
A series of 3-pyrimidyl-6-alkyl TZ activators (4.1, 4.11, 4.13, 4.15, 4.26, 4.28) was then compared to compound 4.12 in LS174T tumor-bearing mice (n=3-5) pretreated with a diabody-based ADC (AVP0458-TCO-MMAE; DAR=4). The mice were injected the ADC at a ca. 2 mg/kg dose followed 48 h later by the activator (dose 1×: ca. 3.35 μmol/kg; dose 2.5×: ca. […]; dose 5×: ca. 0.017 mmol/kg; dose 10×: ca. 0.033 mmol/kg; dose 100×: ca. 0.335 mmol/kg) and, 1 h post-activator, by the [^111In]In-5.1 probe. Three hours ([…], 4.15) or 24 h (4.26, 4.28) post-probe injection the mice were euthanized and the tumor blocking capacity of the various activators at the administered dose (FIG. 2B) was calculated as reported above.

[7] = In vitro microsomal stability of TZ activators, cynomolgus microsomes; assay type: in vitro ADME; details: 5 μM activator, 0.5 mg/mL microsomes, normalized to 100% at t=0, LC-MS
Description: (§4) The in vitro stability of activators 4.11, 4.13, and 4.15 was tested in the presence of human, mouse, rat and cynomolgus microsomes after 30 min incubation (normalized to 100% at t=0). Control samples were incubated with the same concentration of BSA. The activators (5 μM) were incubated in 20 mM phosphate buffer pH 7.4 containing the microsomes (0.5 mg/mL), 1 mM NADP, 5 mM glucose-6-phosphate, 1 U/mL glucose-6-phosphate dehydrogenase, and 2 mM MgCl2 at 37° C. and the measurements were performed by LC-MS. The amount of activator in solution was quantified using calibration curves.

[8] = In vitro microsomal stability of TZ activators, human microsomes; assay type: in vitro ADME; details: 5 μM activator, 0.5 mg/mL microsomes, normalized to 100% at t=0, LC-MS
Description: as §4

[9] = Control incubation with BSA in the microsomal stability test; assay type: in vitro ADME; details: control samples, same concentration of BSA
Description: as §4

[10] = In vitro microsomal stability of TZ activators, mouse microsomes; assay type: in vitro ADME; details: 5 μM activator, 0.5 mg/mL microsomes, normalized to 100% at t=0, LC-MS
Description: as §4

[11] = In vitro microsomal stability of TZ activators, rat microsomes; assay type: in vitro ADME; details: 5 μM activator, 0.5 mg/mL microsomes, normalized to 100% at t=0, LC-MS
Description: as §4

SMILES: Cc1nnc(C)nn1 [Compound 2.1, 3,6-dimethyl-1,2,4,5-tetrazine]
- half-life [1]: 14 h
- tumor blocking capacity (FIG. 2A) [2]: perform much worse
- In vitro Dox release (%) from CC49-Dox at 37° C. in 50% mouse serum: 1 h (CC49-TCO-Dox [3]; 1 h): 64.6 ± 1.0%
- In vitro Dox release (%) from CC49-Dox at 37° C. in 50% mouse serum: 2 h (CC49-TCO-Dox [3]; 2 h): 68.7 ± 1.1%
- In vitro Dox release (%) from CC49-Dox at 37° C. in 50% mouse serum: 3 h (CC49-TCO-Dox [3]; 3 h): 69.7 ± 1.0%
- induced MMAE release (%) from AVP0458-TCO-MMAE (AVP0458-TCO-MMAE): 95 ± 0.4%
- reactivity (k2) [4]: 14 M⁻¹ s⁻¹
- In vitro Dox release (%) from CC49-Dox at 37° C. in PBS: 1 h (CC49-TCO-Dox [5]; 1 h): 76.1%
- In vitro Dox release (%) from CC49-Dox at 37° C. in PBS: 2 h (CC49-TCO-Dox [5]; 2 h): 78.5%
- In vitro Dox release (%) from CC49-Dox at 37° C. in PBS: 3 h (CC49-TCO-Dox [5]; 3 h): 78.8%
- In vitro Dox release (%) from CC49-Dox at 37° C. in PBS: 24 h (CC49-TCO-Dox [5]; 24 h): 80.6%
- In vitro Dox release (%) from CC49-Dox at 37° C. in PBS: 48 h (CC49-TCO-Dox [5]; 48 h): 81.5%

SMILES: Cc1nnc(-c2ncccn2)nn1 [Compound 4.1, 3-methyl-6-(pyrimidin-2-yl)-1,2,4,5-tetrazine, reference compound]
- half-life [1]: 10 h
- induced MMAE release (%) from AVP0458-TCO-MMAE (AVP0458-TCO-MMAE): 69 ± 0.0%
- tumor blocking capacity (FIG. 2B) [6]: perform much worse
- reactivity (k2) [4]: 250 M⁻¹ s⁻¹

SMILES: CN(CCc1nnc(-c2ncccn2)nn1)C(=O)CCCC(=O)NC(CO)(CO)CO [Compound 4.15]
- In vitro microsomal stability of TZ activators after 30 min incubation at 37° C.: Cynomolgus [7]: 85.6 ± 0.5%
- In vitro microsomal stability of TZ activators after 30 min incubation at 37° C.: Human [8]: 87.7%
- In vitro microsomal stability of TZ activators after 30 min incubation at 37° C.: BSA [9]: 87.5%
- In vitro microsomal stability of TZ activators after 30 min incubation at 37° C.: Mouse [10]: 81.2%
- induced MMAE release (%) from AVP0458-TCO-MMAE (AVP0458-TCO-MMAE): 55 ± 0.4%
- In vitro microsomal stability of TZ activators after 30 min incubation at 37° C.: Rat [11]: 91.1%
